Each compound was assayed on adipocytes (assay: 3H-glucose uptake into adipocytes (fat cell assay, FFC)).
Format: cell-based, Mouse
Set-up: key to FFC: 0 is no effect; + is agonist; - is antagonist

Compound	FFC
CC(C)[C@@H](NC(=O)[C@@H](Cc1ccccc1)NC(=O)[C@@H](Cc1c[nH]c2ccccc12)NC(=O)[C@@H](CC(=O)O)NC(=O)[C@@H](Cc1ccc(O)cc1)NC(=O)[C@@H](Cc1ccccc1)NC(=O)[C@@H](CC(N)=O)NC(=O)[C@@H](CCC(=O)O)NC(=O)[C@@H](Cc1c[nH]cn1)NC(=O)[C@H](N)Cc1ccccc1)C(=O)N[C@H](CCCNC(=N)N)C(=O)N[C@H](CCC(N)=O)C(=O)N[C@@H](C(=O)N[C@H](CO)C(=O)N[C@H](CCCCN)C(=O)N[C@H](CCCCN)C(=O)O)C(C)C [Clone S114]	0
CC[C@H](C)[C@H](NC(=O)[C@H](C)NC(=O)[C@H](CC(N)=O)NC(=O)[C@H](Cc1ccc(O)cc1)NC(=O)[C@H](Cc1ccccc1)NC(=O)CNC(=O)[C@H](CC(=O)O)NC(=O)[C@@H](N)CO)C(=O)N[C@@H](CCC(=O)O)C(=O)N[C@@H](CC(C)C)C(=O)N[C@@H](CC(C)C)C(=O)N[C@@H](CO)C(=O)O [Clone S118]	+
CC(C)C[C@H](NC(=O)CNC(=O)[C@H](CCC(N)=O)NC(=O)[C@H](Cc1ccccc1)NC(=O)[C@H](Cc1ccc(O)cc1)NC(=O)[C@H](CO)NC(=O)[C@H](Cc1ccc(O)cc1)NC(=O)[C@H](Cc1ccccc1)NC(=O)[C@H](CC(=O)O)NC(=O)[C@H](CO)NC(=O)[C@@H](N)Cc1c[nH]c2ccccc12)C(=O)N[C@@H](CC(=O)O)C(=O)O [Clone S127]	0
CC(C)[C@H](NC(=O)[C@H](Cc1ccccc1)NC(=O)[C@H](Cc1c[nH]c2ccccc12)NC(=O)[C@H](CC(=O)O)NC(=O)[C@H](Cc1ccc(O)cc1)NC(=O)[C@H](Cc1ccccc1)NC(=O)[C@H](CC(N)=O)NC(=O)[C@H](CCC(=O)O)NC(=O)[C@H](Cc1c[nH]cn1)NC(=O)[C@@H](N)Cc1ccccc1)C(=O)N[C@@H](CCCNC(=N)N)C(=O)N[C@@H](CCC(N)=O)C(=O)N[C@H](C(=O)N[C@@H](CO)C(=O)N[C@@H](CCCCN)C(=O)N[C@@H](CCCCN)C(=O)N[C@@H](CNC(=O)CON)C(N)=O)C(C)C [Clone S131]	+
CC(C)[C@H](NC(=O)[C@H](Cc1ccccc1)NC(=O)[C@H](Cc1c[nH]c2ccccc12)NC(=O)CNC(=O)[C@H](Cc1ccc(O)cc1)NC(=O)[C@H](Cc1ccccc1)NC(=O)[C@H](CC(N)=O)NC(=O)[C@H](CCC(=O)O)NC(=O)[C@@H](N)Cc1c[nH]cn1)C(=O)N[C@@H](CCCNC(=N)N)C(=O)N[C@@H](CCC(N)=O)C(=O)N[C@H](C(=O)N[C@@H](CO)C(=O)N[C@@H](CCCCN)C(=O)N[C@@H](CCCCN)C(=O)O)C(C)C [Clone S137]	0
CC(C)[C@H](NC(=O)[C@H](Cc1ccccc1)NC(=O)[C@H](Cc1c[nH]c2ccccc12)NC(=O)[C@H](CC(=O)O)NC(=O)[C@H](Cc1ccc(O)cc1)NC(=O)[C@H](Cc1ccccc1)NC(=O)[C@H](CC(N)=O)NC(=O)[C@H](CCC(=O)O)NC(=O)[C@H](Cc1c[nH]cn1)NC(=O)[C@@H](N)Cc1ccccc1)C(=O)N[C@@H](CCCNC(=N)N)C(=O)N[C@@H](CCC(N)=O)C(=O)N[C@H](C(=O)N[C@@H](CO)C(=O)N[C@@H](CCCCN)C(=O)N[C@@H](CCCCN)C(=O)NCC[C@H](NC(=O)[C@H](CCCCN)NC(=O)[C@H](CCCCN)NC(=O)[C@H](CO)NC(=O)[C@@H](NC(=O)[C@H](CCC(N)=O)NC(=O)[C@H](CCCNC(=N)N)NC(=O)[C@@H](NC(=O)[C@H](Cc1ccccc1)NC(=O)[C@H](Cc1c[nH]c2ccccc12)NC(=O)[C@H](CC(=O)O)NC(=O)[C@H](Cc1ccc(O)cc1)NC(=O)[C@H](Cc1ccccc1)NC(=O)[C@H](CC(N)=O)NC(=O)[C@H](CCC(=O)O)NC(=O)[C@H](Cc1c[nH]cn1)NC(=O)[C@@H](N)Cc1ccccc1)C(C)C)C(C)C)C(N)=O)C(C)C [Clone S152]	+
